Assay results taken from ChEMBL document CHEMBL1157217, “Terpenoid indole alkaloids from Winchia calophylla” (J Nat Prod, 2006).

Tested on: A549
Assay: Cytotoxicity against human A549 cells by SRB assay
Assay type: functional, cell-based

Row | SMILES | IC50
1 | COC(=O)C1=C2Nc3c(OC)cccc3[C@@]23CCN2C[C@@H]([C@H](C)O)[C@@H]1C[C@H]23 | 11.5 µM
2 | C/C=C1/CN2CC[C@]34C(=C(C(=O)OC)[C@H]1C[C@H]23)Nc1ccccc14 [AKUAMMICINE] | 15 µM
